Measurements as given in ChEMBL document CHEMBL1201862, “PubChem BioAssay data set” (2004).
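Five concentrations, 48 hours, 96-well plates. At the GI50, growth is halved.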 The source made the active and inactive calls. Cut-off read from the data, not from the text of the source: active = GI50 up to about 1.1 µM and inactive = higher.

Assays:
Experiment in all cases: growth of human tumour cells (NCI), 48 h
[1] = system: SW-620
[2] = system: SR
[3] = system: Malme-3M
[4] = system: LOX IMVI
[5] = system: BT-549
[6] = system: OVCAR-8
[7] = system: KM-20L2
[8] = system: EKVX
[9] = system: MDA-MB-231
[10] = system: K562
[11] = system: HCT-116
[12] = system: 786-0
[13] = system: SK-MEL-2
[14] = system: DMS-273
[15] = system: MDA-N
[16] = system: LXFL 529
[17] = system: SF-268
[18] = system: M19-MEL
[19] = system: HOP-92
[20] = system: HCT-15

Compound | GI50 [1] | GI50 [2] | GI50 [3] | GI50 [4] | GI50 [5] | GI50 [6] | GI50 [7] | GI50 [8] | GI50 [9] | GI50 [10] | GI50 [11] | GI50 [12] | GI50 [13] | GI50 [14] | GI50 [15] | GI50 [16] | GI50 [17] | GI50 [18] | GI50 [19] | GI50 [20] [µM]
NCc1ccc(O)c(O)c1O | 20 µM (inactive) | 30.1 µM (inactive) | 71.1 µM (inactive) | 16.8 µM (inactive) | 18.4 µM (inactive) | 23.9 µM (inactive) | 30.2 µM (inactive) | 39.7 µM (inactive) | 19.7 µM (inactive) | 23.6 µM (inactive) | 16.7 µM (inactive) | 15.9 µM (inactive) | 22.5 µM (inactive) | 16.9 µM (inactive) | > 10 µM (inactive) | 16.8 µM (inactive) | 28.3 µM (inactive) | 12.8 µM (inactive) | > 58.6 µM (inactive) | 24.7
CCc1cccc(C(C)CC)c1NC(=O)CC1C(=O)Nc2ccccc2[S+]1[O-] (stereo not given) | 39.5 µM (inactive) | 30 µM (inactive) | 37.2 µM (inactive) | 28.2 µM (inactive) | – | 95.7 µM (inactive) | 61.2 µM (inactive) | > 100 µM (inactive) | – | 42.3 µM (inactive) | 31.3 µM (inactive) | 37.4 µM (inactive) | 40.5 µM (inactive) | 34 µM (inactive) | – | 31.4 µM (inactive) | 40.9 µM (inactive) | 32.8 µM (inactive) | 16.7 µM (inactive) | 31
Nc1c(Cl)ncnc1NCCCCCCCCCCCCNc1ncnc(Cl)c1N | 2.69 µM (inactive) | 0.147 µM (active) | 1.94 µM (inactive) | < 0.01 µM (active) | – | 1.9 µM (inactive) | 7.11 µM (inactive) | 3.44 µM (inactive) | – | < 0.01 µM (active) | 0.0469 µM (active) | 2.86 µM (inactive) | 2.35 µM (inactive) | 1.74 µM (inactive) | – | 0.218 µM (active) | 2.3 µM (inactive) | 2.59 µM (inactive) | 1.32 µM (inactive) | 1.88
N#CC(C#N)=Cc1cccc(Oc2ccccc2)c1 | 25.6 µM (inactive) | 8.93 µM (inactive) | 20.1 µM (inactive) | 20.6 µM (inactive) | – | 19.1 µM (inactive) | 37.4 µM (inactive) | 54.2 µM (inactive) | – | 23.7 µM (inactive) | 17.1 µM (inactive) | 18.6 µM (inactive) | 21.2 µM (inactive) | 19 µM (inactive) | – | 18.5 µM (inactive) | 19.1 µM (inactive) | 27.5 µM (inactive) | – | 35.1
Cn1cnc([N+](=O)[O-])c1Sc1nc2cccnc2s1 | 12 µM (inactive) | 16 µM (inactive) | 10.1 µM (inactive) | 25.1 µM (inactive) | – | 16.1 µM (inactive) | 16.9 µM (inactive) | 17.5 µM (inactive) | – | – | 16 µM (inactive) | 14.5 µM (inactive) | – | 16.7 µM (inactive) | – | 12.4 µM (inactive) | 28.8 µM (inactive) | 14.9 µM (inactive) | 18.5 µM (inactive) | 11.6
C/C(=N\NC(=S)N1CCN(c2ccccn2)CC1)c1ccccn1 | 0.017 µM (active) | 0.0522 µM (active) | 0.224 µM (active) | 0.0403 µM (active) | 0.01 µM (active) | 0.00281 µM (active) | 0.000413 µM (active) | < 0.0154 µM (active) | 0.0495 µM (active) | 0.00296 µM (active) | 0.00158 µM (active) | 0.074 µM (active) | 1.25 µM (inactive) | 0.00069 µM (active) | 0.167 µM (active) | 0.000342 µM (active) | 0.193 µM (active) | 1.01 µM (active) | 0.0776 µM (active) | 0.0219
CCC1(CN(C)C)CC/C(=C\c2ccc(OC)c(OC)c2)C1=O (stereo not given) | > 100 µM (inactive) | < 0.01 µM (active) | > 100 µM (inactive) | > 100 µM (inactive) | – | > 100 µM (inactive) | 51.9 µM (inactive) | > 54.6 µM (inactive) | – | 57.4 µM (inactive) | > 74.5 µM (inactive) | > 100 µM (inactive) | > 100 µM (inactive) | > 100 µM (inactive) | – | > 92 µM (inactive) | > 100 µM (inactive) | > 100 µM (inactive) | > 100 µM (inactive) | > 100
Cc1cc(O)nc(NNC(C#N)c2ccc([N+](=O)[O-])cc2)n1 (stereo not given) | 95.3 µM (inactive) | 26.3 µM (inactive) | 70.1 µM (inactive) | > 100 µM (inactive) | – | > 100 µM (inactive) | > 100 µM (inactive) | – | – | > 100 µM (inactive) | 80.4 µM (inactive) | > 100 µM (inactive) | > 100 µM (inactive) | 91.4 µM (inactive) | – | > 100 µM (inactive) | > 100 µM (inactive) | > 100 µM (inactive) | > 100 µM (inactive) | > 100
C=Cc1cncc(C#N)c1CCc1c(C#N)cncc1C=C | > 10 µM (inactive) | > 10 µM (inactive) | > 10 µM (inactive) | > 100 µM (inactive) | – | > 10 µM (inactive) | > 10 µM (inactive) | 49 µM (inactive) | – | > 10 µM (inactive) | > 10 µM (inactive) | > 10 µM (inactive) | > 10 µM (inactive) | > 10 µM (inactive) | – | > 10 µM (inactive) | > 10 µM (inactive) | > 10 µM (inactive) | > 10 µM (inactive) | > 10
CCN(CC)CCNC(=O)c1ccccc1Nc1c(Cl)cccc1Cl | 15.3 µM (inactive) | 13 µM (inactive) | – | 11.3 µM (inactive) | – | 16.4 µM (inactive) | 2.92 µM (inactive) | 12.7 µM (inactive) | – | > 10 µM (inactive) | 12.8 µM (inactive) | 6.34 µM (inactive) | – | 16.5 µM (inactive) | – | 16.5 µM (inactive) | 18.2 µM (inactive) | 16.1 µM (inactive) | – | 12.6
CC(C)NC(=O)O/N=C1\CCC2[C@@H]3CC=C4C[C@@H](OC(=O)NC(C)C)CC[C@]4(C)C3CC[C@]12C (stereo not given in full) | 1.79 µM (inactive) | 1.2 µM (inactive) | 0.31 µM (active) | 1.03 µM (active) | – | 1.75 µM (inactive) | 2.59 µM (inactive) | 1.28 µM (inactive) | – | 0.953 µM (active) | 1.43 µM (inactive) | 1.61 µM (inactive) | 1.46 µM (inactive) | 1.31 µM (inactive) | – | 0.912 µM (active) | 1.49 µM (inactive) | 1.29 µM (inactive) | 2.08 µM (inactive) | 1.43
CC(=O)OCC(OC(C)=O)C(OC(C)=O)C(OC(C)=O)C(=O)CNn1c(-c2ccccc2Cl)nc2ccc(Br)cc2c1=O (stereo not given) | > 100 µM (inactive) | 43.8 µM (inactive) | > 100 µM (inactive) | 82 µM (inactive) | – | 76.9 µM (inactive) | > 100 µM (inactive) | > 100 µM (inactive) | – | 44 µM (inactive) | > 100 µM (inactive) | > 100 µM (inactive) | > 100 µM (inactive) | 56.5 µM (inactive) | – | 36.9 µM (inactive) | > 100 µM (inactive) | > 100 µM (inactive) | – | 78.7
C=Cc1ccc(C)[n+](C[Si](C)(C)O[Si](C)(C)C[n+]2cc(C=C)ccc2C)c1 | > 100 µM (inactive) | > 100 µM (inactive) | > 100 µM (inactive) | > 100 µM (inactive) | – | > 100 µM (inactive) | > 100 µM (inactive) | 54.2 µM (inactive) | – | > 100 µM (inactive) | > 100 µM (inactive) | > 100 µM (inactive) | > 100 µM (inactive) | > 100 µM (inactive) | – | > 100 µM (inactive) | > 100 µM (inactive) | > 100 µM (inactive) | > 100 µM (inactive) | –
Cc1c(C(=O)Nc2ccc(Cl)cc2)nc(N)nc1-c1cccc(Cl)c1 | 62.7 µM (inactive) | > 100 µM (inactive) | > 100 µM (inactive) | > 10 µM (inactive) | – | > 100 µM (inactive) | 45.4 µM (inactive) | > 100 µM (inactive) | – | 38.5 µM (inactive) | 57.3 µM (inactive) | > 100 µM (inactive) | – | > 100 µM (inactive) | – | > 10 µM (inactive) | > 100 µM (inactive) | > 100 µM (inactive) | 28.4 µM (inactive) | –
O=C(CCc1nnc2s/c(=C\c3ccccc3[N+](=O)[O-])c(=O)n12)Nc1cc(Cl)c(Cl)cc1Cl | > 10 µM (inactive) | – | 48.2 µM (inactive) | 20.8 µM (inactive) | – | 25.9 µM (inactive) | 54 µM (inactive) | 37.9 µM (inactive) | – | 22 µM (inactive) | 17.5 µM (inactive) | 17.1 µM (inactive) | 92.7 µM (inactive) | 54.3 µM (inactive) | – | 21.8 µM (inactive) | 26.5 µM (inactive) | 43.2 µM (inactive) | 18.7 µM (inactive) | 40.4
N=C(N)NS(=O)(=O)c1ccc(NCc2c3ccccc3[n+]([O-])c3ccccc23)cc1 | 16.4 µM (inactive) | – | 20 µM (inactive) | 11.1 µM (inactive) | – | 28.5 µM (inactive) | 30.1 µM (inactive) | > 100 µM (inactive) | – | 25.7 µM (inactive) | 8.11 µM (inactive) | 19.7 µM (inactive) | 40.2 µM (inactive) | 9.35 µM (inactive) | – | 17.1 µM (inactive) | 11.8 µM (inactive) | 22.9 µM (inactive) | 0.394 µM (active) | 18.4
